Measurements reported in patent USRE38117E1, “Trioxane dimer compound having antiproliferative and antitumor activities” (Hauser, Inc., priority 1995, dated 2003).

Columns and labels:
[1] = tested on: murine keratinocyte cell line PE; assay: Growth inhibition of PE cells (MTT assay); format: cell-based; details: murine keratinocytes, FIGS. 1-9
Method: To determine the inhibitory effect of the trioxane dimers of the present invention on cell proliferation, screening assays were performed on a murine keratinocyte cell line PE. […] PE cell culture medium consisted of Eagle's minimal essential medium without calcium chloride (Whittaker Bioproducts, Walkersville, Ma.) supplemented with 8% chelexed fetal calf serum and 1% antibiotic-antimycotic (Gibco BRL) and the addition of CaCl2 to 0.05 mM Ca^++. […] (St. Louis, Mo.), and TPA was supplied by L. C. Services (Woburn, Ma.). L-[^14C]ornithine ([…]) was from Amersham/Searle Corp. (Arlington Heights, Ill.). Chemical solvents used in all assays of biological activity were of the highest grade commercially available. Growth Inhibition. […] A mitochondrial dehydrogenase reduces MTT to a blue formazan product with an absorbance maximum of 505 nm in DMSO; the number of viable cells can thus be determined spectrophotometrically. PE cells were seeded at a density of 5,000 cells/well in 50 μL of medium into 96-well microtiter plates. […] The plates were fed once at 48 h, with the readdition of the vitamin D3 analogs at this time. […] After 4 h, the MTT was removed and DMSO added to dissolve the blue formazan dye. Using a microtiter plate reader, the […] was then determined and cell number calculated from blank-subtracted absorbance values.

[2] = tested on: murine keratinocyte cell line PE; assay: Viability of PE cells by trypan blue exclusion; format: cell-based; details: 96 h
[3] = tested on: P. berghei; details: Klayman 1985; cited from earlier work

Molecule | antiproliferative activity [1] | further results
4β-Hydroxymethyl Trioxane Terephthalate Dimer [Compound 24] | significant antiproliferative activity | –
COC1OC2(C)CCC3CCCC(CCOP(=O)(OCCC4CCCC5CCC6(C)OOC45C(OC)O6)Oc4ccccc4)C31OO2 (stereo not drawn) [Compound 20, Bis-trioxane phosphate ester] | Neither phosphate dimers 20, and 21 nor phosphonate dimer 22 has significant antiproliferative activity | –
C=C1/C(=C\C=C2/CCC[C@]3(C)[C@@H]([C@H](C)CCCC(C)(C)O)CC[C@@H]23)C[C@@H](O)C[C@@H]1O [calcitriol, 1α, 25-dihydroxyvitamin D3] | – | viability of the cells [2]: identical to control cells
COC1OC2(C)CCC3CCCC(CCOP(=O)(OC)OCCC4CCCC5CCC6(C)OOC45C(OC)O6)C31OO2 (stereo not drawn) [Compound 21, Bis-trioxane phosphate ester] | Neither phosphate dimers 20, and 21 nor phosphonate dimer 22 has significant antiproliferative activity | –
COC1OC2(C)CCC3CCCC(CCOC(=O)CCCC(=O)OCCC4CCCC5CCC6(C)OOC45C(OC)O6)C31OO2 (stereo not drawn) [Compound 15, Trioxane Bis-ester Dimer] | the most active | –
CC1=CO[C@@H]2O[C@]3(C)CC[C@H]4[C@H](C)CC[C@@H]1[C@@]24OO3 [III] | – | activity against P. berghei-infected mice [3]: inactive
